Data set [1] deals with bloodstream forms of T. b. brucei Lister 427. Put plainly: Resazurin reduction growth inhibition assay against bloodstream forms of T. b. brucei. In kind it is cell-based, Trypanosoma brucei brucei. The settings on record: 72 hours, read-out: IC50 ± SD (µM) T. b. b. How it is done: Bloodstream forms of T. b. brucei Lister 427, a virulent laboratory strain of Trypanosoma brucei were cultured in HMI-9 medium as previously described. […] The resulting signal measured between 570 nm and 590 nm, is directly proportional to the quantity of viable parasites. […] After incubation, a working solution of resazurin (0.15 mg/mL in DPBS) was added to the plates in a 1:10 (v/v) ratio, followed by incubation for 4 hours at 37 °C with 5% CO2. Fluorescence was measured using an Infinite M200 microplate reader (Tecan) at excitation and emission wavelengths of 530 nm and 590 nm, respectively. Compound achieving ≥ 50% inhibition of trypanosomes were selected for further dose-response studies.
Compounds that adhered to the cutoff criterion (≥ 50% inhibition) were serially diluted and tested for their half-maximal inhibitory concentrations (IC50). […] Dose-response curves were generated using GraphPad Prism software (version 8.0). […]
Data were analysed using Microsoft Excel and GraphPad Prism 8.0. Nonlinear regression with a sigmoidal dose-response fit model was applied to the data to determine IC50 and CC50 values.
On the technique in general: Resazurin is reduced to fluorescent resorufin, in cell work by metabolically active cells.

Data set [2] in a line: Cytotoxicity, resazurin reduction assay, HepG2. It counts as cell-based, human. The settings on record: human. On the procedure:
Vero E6 (African green monkey kidney), Raw264.7 (murine macrophages) and HepG2 (human hepatocyte carcinoma) cell lines, sourced from the American Type Culture Collection, were cultured in DMEM supplemented with 10% (v/v) heat-inactivated fetal bovine serum, 1% (v/v) non-essential amino acids, and 1% (v/v) penicillin-streptomycin. Cells were maintained at 37 °C in a 5% CO2 atmosphere. For cytotoxicity testing, they were seeded (90 µL) in 96-well plates at a density of 1x10^4 cells/well, in duplicate, and allowed to adhere overnight. Serial dilutions (50-0.08 µM) of the compounds were prepared, and 10 µL of each were incubated with the monolayer for 48 hours. Podophyllotoxin was tested as a positive control at 10 μM and 0.5% DMSO (100% cell viability) was used as negative control. Cell viability was then assessed using the resazurin reduction assay, as described above. The 50% cytotoxic concentration (CC50) was calculated using GraphPad Prism software (version 8.0), and selectivity indices (SIs) were determined by dividing the […].
Data were analysed using Microsoft Excel and GraphPad Prism 8.0. Nonlinear regression with a sigmoidal dose-response fit model was applied to the data to determine IC50 and CC50 values. Results represent the mean ± standard deviation (SD) from two independent experiments performed in duplicate.

The nature of data set [3]: Cytotoxicity, resazurin reduction assay, Raw264.7. The settings on record: mouse. It counts as cell-based, murine. How it is done: (§1) For cytotoxicity testing, they were seeded (90 µL) in 96-well plates at a density of 1x10^4 cells/well, in duplicate, and allowed to adhere overnight. […] Cell viability was then assessed using the resazurin reduction assay, as described above. […] Data were analysed using Microsoft Excel and GraphPad Prism 8.0. Nonlinear regression with a sigmoidal dose-response fit model was applied to the data to determine IC50 and CC50 values. Results represent the mean ± standard deviation (SD) from two independent experiments performed in duplicate.

The nature of data set [4]: Cytotoxicity, resazurin reduction assay, Vero. It counts as cell-based. The settings on record: African green monkey. How it is done:
as §1

Data set [5] concerns bloodstream forms of T. b. brucei. The data set is described as follows: Trypanosome killing kinetics (time-kill assay). It counts as cell-based, Trypanosoma brucei brucei. The settings on record: 8IC50, 4IC50, IC50, 0.25IC50; over 72 hours. How it is done: (§2) To evaluate the killing kinetics of selected compounds, bloodstream forms of T. b. brucei (2 x 10⁵ cells/mL) were incubated in normal culture conditions in the presence of compounds at 8IC50, 4IC50, IC50, and 0.25IC50 concentrations in 24-well plates. Upon incubation, cultures were centrifuged at 0, 4, 8, 12, 24, 30, 36, 48, 60, and 72 hours’ time intervals at 2,500 rpm followed by motile trypanosomes enumeration using a Lumascope LS520 inverted microscope. To determine the mode of inhibition (parasitostatic or parasiticidal), a rescue experiment was conducted. Trypanosomes were exposed to the test doses (8IC50, 4IC50, IC50, and 0.25IC50) of the compounds for 4 hours. They were then washed three times with phosphate buffer saline (DPBS 1X), centrifuged at 2,500 rpm for 7 minutes, and resuspended in complete drug-free medium. These parasites were cultured under the same conditions, and motile organisms were enumerated with the Neubauer chamber at regular intervals over 72 hours. Data were plotted using GraphPad Prism 8.0 to determine the inhibition kinetics and classify the inhibitors as cidal or static. Pentamidine isethionate served as the reference compound and experiments were performed in duplicate.

Data set [6] has the same test system. The data set is described as follows: Rescue experiment (4 h exposure, washout, drug-free medium). It counts as cell-based, Trypanosoma brucei brucei. The settings on record: 72 hours monitoring, 4xIC50 and 8xIC50. How it is done: as §2
The target in data set [7] is human CX3C motif chemokine receptor 1 (CX3CR1). The arrangement: method as in printed. The settings on record: known human target; ref not given; cited from earlier work.
For data set [8], the target named is TANK-binding kinase 1 (TBK1). Also on record: method as in ref 37 = [37]; 37 Dorsch D , Wucherer-Plietker M , Mueller TJ , Merkul E . 3-([1,2,3]triazole-4-yl)-pyrrolo[2,3-b]pyridine derivates . World Intellectual Property Organization . 2010 . https://patents.google.com/pat. The settings on record: cited from earlier work.
The test system of the next data set is normal cells. Also on record: method as in ref 37 = [37]; 37 Dorsch D , Wucherer-Plietker M , Mueller TJ , Merkul E . 3-([1,2,3]triazole-4-yl)-pyrrolo[2,3-b]pyridine derivates . World Intellectual Property Organization . 2010 . https://patents.google.com/pat. The settings on record: cited from earlier work.
For data set [9] the following is noted: HAT regimens; cited from earlier work.
The mark [10] stands for this setting: Trypanosoma brucei, 72 h, confirmation screen, powdered form.
[11] abbreviates: Trypanosoma brucei, 72 h, primary screen, DMSO stock solution, bloodstream form T. b. brucei Lister 427.
Where [12] appears, read: primary screen, DMSO stock solution, bloodstream form T. b. brucei Lister 427.

“Also recorded” adds a separate entry of the source. Where two headings read alike, the source gives them in different places.

For orientation: IC50 means the concentration needed to halve the response being measured. By CC50 is commonly meant the concentration at which the toxic effect on the cells reaches its halfway point. As for `CN(C)C(=O)/C=C/C(=O)c1ccc(SCc2ccc(Cl)cc2Cl)cc1` [OGHL00006, (E)-4-(4-((2,4-dichlorobenzyl)thio)phenyl)-N,N-dimethyl-4-oxobut-2-enamide], the IC50 in data set [1] (setting [10]) is 0.6 ± 0.1 µM; in [1] (setting [11]), no more than 1 µM; in data set [1] (setting [12]), 0.56 ± 0.001 µM; in [7], 0.526 µM. For the same compound, the CC50 at 48 h is 17.5 ± 0.94 µM in data set [2], 2.2 ± 0.05 µM in data set [3] and 1.2 ± 0.07 µM in [4]. In addition, in [5], the “activity profile in time-kill assay (trypanocidal or cytostatic)” value is “strong trypanocidal activity”. Moreover, the “effect after short exposure and washout (reversible or irreversible)” value in data set [6] is reported as “irreversible trypanocidal activity; also recorded: irreversible trypanocidal effects”.

Turning to `Cn1cc(-c2cnc3[nH]cc(-c4cn(Cc5cccc(F)c5F)nn4)c3c2)cn1` [OGHL00169, 3-(1-(2,3-difluorobenzyl)-1H-1,2,3-triazol-4-yl)-5-(1-methyl-1H-pyrazol-4-yl)-1H-pyrrolo[2,3-b]pyridine], the IC50 in data set [1] (setting [10]) is 0.25 ± 0.04 µM; in data set [1] (setting [11]), no more than 1 µM; in data set [1] (setting [12]) it was 0.85 ± 0.02 µM; in [8], 0.000196 µM. Moreover, the figures for the CC50 at 48 h in data set [2], in data set [3] and in data set [4] were 50 µM, 12.1 ± 1.6 µM and 2.8 ± 0.03 µM, respectively. Moreover, in data set [5], the “activity profile in time-kill assay (trypanocidal or cytostatic)” value is listed as “strong trypanocidal activity”. For the same compound, the “effect after short exposure and washout (reversible or irreversible)” value in [6] is recorded as “irreversible trypanocidal activity; also recorded: irreversible trypanocidal effects”. Besides, in the data set with normal cells, the CC50 was 1 to 10 µM.

As for `Nc1nc(N)nc(Nc2ccc([As]3SCC(CO)S3)cc2)n1` (centres unmarked) [melarsoprol], the “fatal encephalopathy, percentage of cases” value in data set [9] is 5–10%.

Values taken from PMC12622802, “Potent kinase inhibitors from the Merck KGaA OGHL: Novel hits against Trypanosoma brucei with potential for repurposing” (PLOS Neglected Tropical Diseases, 2025).
